Assay results published in the NIST ThermoML archive (doi:10.1021/acs.jced.9b00607).
Numbers after ± are expanded uncertainties.

Assay: wn = mass fraction of the nth substance listed
Details: 102 kPa, Liquid; for viscosity: Falling or rolling sphere viscometry; for mass density: Vibrating tube method

CN(CCO)CCO [N-methyldiethanolamine] + OCCO
Details | mass density [kg/m3] | viscosity [mPa·s]
283.15 K, w1 = 0.3 | 1101.8 ± 0.3 | 64.36 ± 4.2
283.15 K, w1 = 0.4 | 1095.1 ± 0.3 | 80.69 ± 4.3
283.15 K, w1 = 0.5 | 1088.1 ± 0.4 | 99.66 ± 4.7
283.15 K, w1 = 0.7 | 1073.3 ± 0.5 | –
283.15 K, w1 = 0.8 | 1065.4 ± 0.7 | 164.27 ± 7.6
283.15 K, w1 = 0.9 | 1057.2 ± 0.8 | 181.33 ± 8.6
283.15 K, w1 = 1 | 1048 ± 0.3 | 198.15 ± 9.4
298.15 K, w1 = 0.3 | 1090.9 ± 0.3 | 30.43 ± 1.1
298.15 K, w1 = 0.4 | 1084.3 ± 0.3 | 36.57 ± 1.1
298.15 K, w1 = 0.5 | 1077.2 ± 0.4 | 43.55 ± 1.2
298.15 K, w1 = 0.7 | 1062.1 ± 0.5 | 58.07 ± 2.7
298.15 K, w1 = 0.8 | 1054 ± 0.7 | 66.59 ± 2.7
298.15 K, w1 = 0.9 | 1045.6 ± 0.8 | 69.21 ± 2.8
298.15 K, w1 = 1 | 1036.8 ± 0.3 | 74.87 ± 1.5
313.15 K, w1 = 0.3 | 1079.9 ± 0.2 | 15.89 ± 1.1
313.15 K, w1 = 0.4 | 1073.2 ± 0.3 | 18.52 ± 1.1
313.15 K, w1 = 0.5 | 1066 ± 0.3 | 21.58 ± 1.1
313.15 K, w1 = 0.7 | 1050.8 ± 0.5 | 27.72 ± 1.1
313.15 K, w1 = 0.8 | 1042.6 ± 0.7 | 30.49 ± 1.1
313.15 K, w1 = 0.9 | 1034.1 ± 0.8 | 33.05 ± 1.1
313.15 K, w1 = 1 | 1025.3 ± 0.3 | 35.05 ± 1.1
323.15 K, w1 = 0.3 | 1072.5 ± 0.2 | 10.8 ± 0.35
323.15 K, w1 = 0.4 | 1065.7 ± 0.3 | 12.43 ± 0.36
323.15 K, w1 = 0.5 | 1058.5 ± 0.3 | 14.2 ± 0.36
323.15 K, w1 = 0.7 | 1043.1 ± 0.5 | 17.75 ± 0.39
323.15 K, w1 = 0.8 | 1034.9 ± 0.7 | 19.48 ± 0.4
323.15 K, w1 = 0.9 | 1026.4 ± 0.8 | 20.91 ± 0.4
323.15 K, w1 = 1 | 1017.7 ± 0.2 | 21.96 ± 0.43
333.15 K, w1 = 0.3 | 1065.1 ± 0.2 | 7.82 ± 0.47
333.15 K, w1 = 0.4 | 1058.1 ± 0.3 | 8.82 ± 0.48
333.15 K, w1 = 0.5 | 1050.9 ± 0.3 | 9.94 ± 0.48
333.15 K, w1 = 0.7 | 1035.4 ± 0.5 | 12.17 ± 0.49
333.15 K, w1 = 0.8 | 1027.2 ± 0.7 | 13.26 ± 0.49
333.15 K, w1 = 0.9 | 1018.7 ± 0.8 | 14.12 ± 0.49
333.15 K, w1 = 1 | 1010 ± 0.2 | 14.83 ± 0.49
343.15 K, w1 = 0.3 | 1057.4 ± 0.2 | 5.75 ± 0.46
343.15 K, w1 = 0.4 | 1050.5 ± 0.3 | 6.45 ± 0.46
343.15 K, w1 = 0.5 | 1043.1 ± 0.3 | 7.17 ± 0.46
343.15 K, w1 = 0.7 | 1027.5 ± 0.5 | 8.61 ± 0.47
343.15 K, w1 = 0.8 | 1019.3 ± 0.7 | 9.26 ± 0.47
343.15 K, w1 = 0.9 | 1010.9 ± 0.8 | 9.81 ± 0.47
343.15 K, w1 = 1 | 1002.2 ± 0.2 | 10.29 ± 0.54
353.15 K, w1 = 0.3 | 1049.7 ± 0.2 | 4.44 ± 0.31
353.15 K, w1 = 0.4 | 1042.7 ± 0.3 | 4.89 ± 0.31
353.15 K, w1 = 0.5 | 1035.3 ± 0.3 | 5.36 ± 0.31
353.15 K, w1 = 0.7 | 1019.7 ± 0.5 | 6.32 ± 0.32
353.15 K, w1 = 0.8 | 1011.5 ± 0.7 | 6.76 ± 0.32
353.15 K, w1 = 0.9 | 1003 ± 0.8 | 7.13 ± 0.32
353.15 K, w1 = 1 | 994.5 ± 0.2 | 7.4 ± 0.32
